Activity calls are given as the source filed them. The rule behind the calls is not given here.
What was measured:
DU-145 [1] = test: Antimetastatic activity in human DU145 cells assessed as increase of E-cadherin expression at 100 uM after 24 hrs by immunofluorescence analysis in presence of TGF-beta; type: functional, cell-based
DU-145 [2] = test: Antimetastatic activity in human DU145 cells assessed as reduction of vimentin expression at 100 uM after 24 hrs by Western blotting in presence of TGF-beta; type: functional, cell-based
DU-145 [3] = test: Antimetastatic activity in human DU145 cells assessed as reduction of twist expression at 100 uM after 24 hrs by Western blotting in presence of TGF-beta; type: functional, cell-based
DU-145 [4] = test: Antimetastatic activity in human DU145 cells assessed as increase of E-cadherin expression at 100 uM after 24 hrs by Western blotting in presence of TGF-beta; type: functional, cell-based
DU-145 [5] = test: Antiinvasive activity in human DU145 cells assessed as reduction of number of invaded cells through matrigel at 100 uM after 8 hrs by Boyden chamber invasion assay in presence of TGF-beta; type: functional, cell-based
DU-145 [6] = test: Antimetastatic activity in human DU145 cells assessed as decrease of MMP9 expression at 100 uM in presence of TGF-beta; type: functional, cell-based
DU-145 [7] = test: Antimetastatic activity in MMP9 siRNA transfected human DU145 cells assessed as increase of vimentin expression at 25 to 100 uM by Western blotting; type: functional, cell-based
DU-145 [8] = test: Antimetastatic activity in MMP9 siRNA transfected human DU145 cells assessed as increase of E-cadherin expression at 25 to 100 uM by Western blotting; type: functional, cell-based
[9] = target: Matrix metalloproteinase-9 (Homo sapiens) (UniProt P14780); test: Inhibition of MMP9 in human DU145 cells after 24 hrs by SDS-PAGE gelatin zymography assay; type: cell-based; conditions: DU-145
DU-145 [10] = test: Antimetastatic activity in human DU145 cells assessed as decrease of MMP9 mRNA expression at 25 to 100 uM by RT-PCR analysis; type: functional, cell-based
DU-145 [11] = test: Antimetastatic activity in human DU145 cells assessed as decrease of PI3K/Akt expression by Western blotting; type: functional, cell-based
DU-145 [12] = test: Antimetastatic activity in human DU145 cells assessed as decrease of snail mRNA expression at 25 to 100 uM by RT-PCR analysis; type: functional, cell-based
DU-145 [13] = test: Antimetastatic activity in human DU145 cells assessed as decrease of twist mRNA expression at 25 to 100 uM by RT-PCR analysis; type: functional, cell-based
DU-145 [14] = test: Antimetastatic activity in human DU145 cells assessed as decrease of vimentin mRNA expression at 25 to 100 uM by RT-PCR analysis; type: functional, cell-based
DU-145 [15] = test: Antimetastatic activity in human DU145 cells assessed as increase of E-cadherin mRNA expression at 25 to 100 uM by RT-PCR analysis; type: functional, cell-based
DU-145 [16] = test: Antimetastatic activity in human DU145 cells assessed as decrease of twist expression at 25 to 100 uM by Western blotting; type: functional, cell-based
DU-145 [17] = test: Antimetastatic activity in human DU145 cells assessed as decrease of vimentin expression at 25 to 100 uM by Western blotting; type: functional, cell-based
DU-145 [18] = test: Antimetastatic activity in human DU145 cells assessed as increase of E-cadherin expression at 25 to 100 uM by Western blotting; type: functional, cell-based
DU-145 [19] = test: Antimigratory activity in human DU145 cells at 100 uM by wound-healing assay; type: functional, cell-based
DU-145 [20] = test: Antiinvasive activity in human DU145 cells assessed as reduction of number of invaded cells through matrigel at 25 to 100 uM after 8 hrs by Boyden chamber invasion assay; type: functional, cell-based
DU-145 [21] = test: Inhibition of cell adhesion in human DU145 cells in vitronectin-coated plates at 25 to 100 uM; type: functional, cell-based
DU-145 [22] = test: Cytotoxicity against human DU145 cells assessed as cell viability up to 200 uM after 24 hrs by MTT assay; type: cell-based; conditions: du-145, 24 h

Chain of Matrix metalloproteinase-9 (Homo sapiens) (P14780 whole entry): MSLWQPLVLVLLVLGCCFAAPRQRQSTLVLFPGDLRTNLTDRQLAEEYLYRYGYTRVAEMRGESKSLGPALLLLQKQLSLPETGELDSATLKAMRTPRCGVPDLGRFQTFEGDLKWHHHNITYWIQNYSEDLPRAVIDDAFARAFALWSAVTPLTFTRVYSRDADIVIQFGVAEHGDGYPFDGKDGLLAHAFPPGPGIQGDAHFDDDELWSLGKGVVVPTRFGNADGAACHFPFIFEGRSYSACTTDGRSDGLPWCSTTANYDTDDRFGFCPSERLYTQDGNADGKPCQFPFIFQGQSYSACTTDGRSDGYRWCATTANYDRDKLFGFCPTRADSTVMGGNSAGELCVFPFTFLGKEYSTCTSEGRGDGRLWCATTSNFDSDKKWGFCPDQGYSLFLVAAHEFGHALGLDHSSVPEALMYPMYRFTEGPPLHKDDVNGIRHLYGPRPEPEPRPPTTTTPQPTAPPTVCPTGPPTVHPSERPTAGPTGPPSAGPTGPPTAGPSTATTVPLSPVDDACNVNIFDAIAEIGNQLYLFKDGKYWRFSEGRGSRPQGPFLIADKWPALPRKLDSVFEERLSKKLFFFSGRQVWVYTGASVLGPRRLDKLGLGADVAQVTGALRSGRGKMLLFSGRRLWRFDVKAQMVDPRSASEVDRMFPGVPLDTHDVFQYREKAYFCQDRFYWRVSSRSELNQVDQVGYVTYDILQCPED

In the case of C/C=C/c1ccc(OC)cc1 [ANETHOLE], the Activity (DU-145 [1]) was “inactive”, the Activity (DU-145 [2]) was “inactive” and the Activity (DU-145 [3]) was “inactive”. For the same compound, the Activity (DU-145 [4]) was “inactive”, the Activity (DU-145 [5]) was “inactive” and the Activity (DU-145 [6]) was “inactive”. For the same compound, the Activity (DU-145 [7]) was “inactive”, the Activity (DU-145 [8]) was “inactive” and the inhibition [9] was “Dose-dependent effect”. For the same compound, the Activity (DU-145 [10]) was “Active”, the Activity (DU-145 [11]) was “Dose-dependent effect” and the Activity (DU-145 [12]) was “Active”. For the same compound, the Activity (DU-145 [13]) was “Active”, the Activity (DU-145 [14]) was “Active” and the Activity (DU-145 [15]) was “Active”. The Activity (DU-145 [16]) was “Active”, the Activity (DU-145 [17]) was “Active” and the Activity (DU-145 [18]) was “Active”. The Activity (DU-145 [19]) was “Active”, the Activity (DU-145 [20]) was “Active” and the inhibition (DU-145 [21]) was “Active”. For the same compound, the Activity (DU-145 [22]) was “Non-toxic”.

From ChEMBL document CHEMBL3102743, “Regulation of crosstalk between epithelial to mesenchymal transition molecules and MMP-9 mediates the antimetastatic activity of anethole in DU145 prostate cancer cells” (J Nat Prod, 2014)
